The values below come from patent publication US4801616A, “Diphenylmethanone compounds and anti-inflammatory use thereof” (Eli Lilly and Company, priority 1986, dated 1989).

The target in one assay is T1, 5-lipoxygenase (Cavia porcellus, UniProt A0A286X958).
T1 construct: incubating 0.2 ml of the supernatant obtained from the PMNL sonicate with the test compound; from tissue; host or cells: casein-elicited guinea pig peritoneal polymorphonuclear leukocytes (PMNL, more than 95 percent of the cells), sonicated, 30,000 x g supernatant
T1 sequence (A0A286X958 1-674): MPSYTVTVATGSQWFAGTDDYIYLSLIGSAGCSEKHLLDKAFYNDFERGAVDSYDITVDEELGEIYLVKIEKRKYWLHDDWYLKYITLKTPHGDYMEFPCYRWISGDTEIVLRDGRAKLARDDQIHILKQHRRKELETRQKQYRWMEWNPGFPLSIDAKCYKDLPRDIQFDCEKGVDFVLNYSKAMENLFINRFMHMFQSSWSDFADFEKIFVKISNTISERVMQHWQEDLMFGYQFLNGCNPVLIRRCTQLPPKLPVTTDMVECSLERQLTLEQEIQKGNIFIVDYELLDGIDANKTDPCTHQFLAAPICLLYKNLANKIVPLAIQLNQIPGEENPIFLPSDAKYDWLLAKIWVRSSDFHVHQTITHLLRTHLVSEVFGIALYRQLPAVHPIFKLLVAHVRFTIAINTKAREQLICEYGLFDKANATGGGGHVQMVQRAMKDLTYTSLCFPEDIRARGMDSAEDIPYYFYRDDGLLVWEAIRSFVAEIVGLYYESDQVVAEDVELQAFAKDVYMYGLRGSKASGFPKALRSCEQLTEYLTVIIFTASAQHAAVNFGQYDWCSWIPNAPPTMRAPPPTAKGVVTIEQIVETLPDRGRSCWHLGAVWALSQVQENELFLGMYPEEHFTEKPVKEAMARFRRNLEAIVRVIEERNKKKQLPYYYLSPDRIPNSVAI
Briefly: 5-Lipoxygenase (5-LPO) Assay, inhibition of 5-HETE formation in PMNL sonicate supernatant. To be noted: for inhibition at 30 µg/mL: percent inhibition at 30 μg/ml. The format is biochemical, guinea pig. The method, then:
5-Lipoxygenase (5-LPO) Assay
Ten milliliters of a 2% casein solution were injected intraperitoneally into guinea pigs weighing 250-300 gm. After 16-18 hours, the guinea pigs were killed by suffocation in a carbon dioxide chamber. The peritoneal cavity was infused with 70 ml of saline and 40-50 ml of the fluid were recovered from the cavity. After centrifugation, cell pellets were washed twice in Hank's balanced salt solution (HBSS) without calcium ion.
The cells were then suspended in 5 ml of sodium phosphate buffer, pH 7.1 containing 1 mM EDTA, and 0.1% gelatin. About 20-30×10^7 cells were obtained from one guinea pig.
The PMNL suspension was disrupted by five 1/2 second pulse sonications at the setting of 3 in a Branson Sonifier, Model 350, equipped with a microtip. The sonicates were combined and centrifuged at 30,000× g for 10 minutes. The supernatant was kept frozen at -70° C. until use.
Enzyme activity was determined by assaying for 5-HETE formation by first incubating 0.2 ml of the supernatant obtained from the PMNL sonicate with the test compound, 1 mM CaCl2, 2 mM ATP, and 1 mM GSH for 5 minutes at 37° C. The mixture is treated with 5 μM ^14 C-arachidonicacid and incubated at 37° C. an additional 10 minutes. The enzyme reaction was then stopped by the addition of 10 μl of 1M citric acid and 10μl of an alcohol solution containing 20 mg/ml each of indomethacin and butylated hydroxyanisole (BHA). The reaction mixture was spotted (50 μl on a silica gel plate (Baker TLC plate S1250-PA-19C) and subjected to TLC in a solvent system of ethyl acetate/2,2,4-trimethylpentane/glacial acetic acid/water (90:50:20:100).
The radioactivity of the arachidonic acid and its metabolites (5-HETE and LTB4) was visualized from a developed x-ray film which had been exposed to the TLC plate 1-2 days. The amount of 5-HETE formed was quantitated by scraping the silica gel area corresponding to the spot on the x-ray film, and the radioactivity determined in a Isocap/300 liquid scintillation counter (Searle Analytic, Inc.).
The percent inhibition of the formation of 5-HETE was determined for each concentration of test compound tested as compared to a control experiment wherein no test compound was added. The concentration and percent inhibition values were plotted on semi log paper and the concentration in which formation of 5-HETE is inhibited by 50% (IC50) was determined by interpolation.

The target in assay [1] is T2, fatty acid cyclooxygenase (Homo sapiens, UniProt P23219).
T2 construct: The solubilized fatty acid cyclooxygenase was applied to a 440 ml electrofocusing column; from tissue; host or cells: human platelets: microsomes solubilized with Triton X-100, purified by electrofocusing and G-200 Sephadex
T2 sequence (P23219 24-599): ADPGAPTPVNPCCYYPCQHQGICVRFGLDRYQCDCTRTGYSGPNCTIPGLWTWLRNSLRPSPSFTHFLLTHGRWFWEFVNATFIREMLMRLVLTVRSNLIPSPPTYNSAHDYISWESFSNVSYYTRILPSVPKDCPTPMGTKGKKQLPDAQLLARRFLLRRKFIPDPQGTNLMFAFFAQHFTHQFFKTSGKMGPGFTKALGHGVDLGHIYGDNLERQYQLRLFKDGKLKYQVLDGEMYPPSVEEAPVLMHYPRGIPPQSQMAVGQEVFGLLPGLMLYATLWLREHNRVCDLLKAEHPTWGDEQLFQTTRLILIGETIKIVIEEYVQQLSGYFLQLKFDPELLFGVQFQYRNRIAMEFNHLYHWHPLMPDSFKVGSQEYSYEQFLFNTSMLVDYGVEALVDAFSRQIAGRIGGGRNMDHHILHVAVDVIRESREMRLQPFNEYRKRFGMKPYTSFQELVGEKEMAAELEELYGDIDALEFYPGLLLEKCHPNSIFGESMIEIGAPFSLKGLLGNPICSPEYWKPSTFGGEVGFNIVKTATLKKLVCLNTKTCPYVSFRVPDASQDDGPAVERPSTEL
Briefly: Fatty Acid Cyclooxygenase (FCO) Assay, inhibition of PGE2 formation by purified human platelet enzyme. The format is biochemical. To be noted: for pIC50: human platelet microsomal enzyme, pH 8.0, 37° C.; for inhibition at 30 µg/mL: percent inhibition at 30 μg/ml. The method, then: Fatty Acid Cyclooxygenase (FCO) Assay
Microsomes were prepared from 185 bags of human platelets (each bag containing the platelets from one pint of blood prepared using differential centrifugation procedures). The platelets from approximately 60 bags were prepared at one time. Platelet-rich plasma (500 g) was centrifuged at 10,000×g for 20 minutes, and the platelet pellet was suspended in 100 ml of 0.1M potassium phosphate buffer, pH 8.0, with a Teflon glass homogenizer and sonicated for 5.0 minutes with a Bronson Sonifier (Model 350) in a rosette flask cooled in ice water. Disrupted platelets were centrifuged 15 minutes at 10,000× g. The supernatant was centrifuged at 100,000× g for 90 minutes and the microsomal pellets were homogenized in 25 ml of 20% sucrose containing 1.0% Triton X-100 detergent. After 30 minutes at 4° C., the solubilized microsomes were centrifuged at 100,000× g for 60 minutes. The yellow supernatant was removed and stored at -70 ° C.
The solubilized fatty acid cyclooxygenase was applied to a 440 ml electrofocusing column (LKB-8012) containing 1% phisolytes (Brinkman Instruments, Westburgh, NY), pH 2-11, with the cathode at the top of the column. The enzyme was layered onto the column at the appropriate time so that its sucrose concentration was equal to that of the column gradient. This was accomplished by checking the gradient concentration periodically with a sucrose hand refractometer. Electrofocusing was carried out for 16 hours with an initial voltage of 400 V and a final voltage of 900-1,000 volts. Fractions were collected (20 ml) and assayed for PGE2 formation. Active peak fractions were pooled and concentrated by ultrafiltration (XM 100A) to a volume of 3-5 ml.
Active fractions from electrofocusing were applied to a G-200 Sephadex column (2 cm×46 cm) and eluted with 10 mM potassium phosphate buffer, pH 7.0, in 5 ml fractions. After assay, active fractions were poored and concentrated to 1.0 ml by ultrafiltration (XM 100A), and kept frozen at -70° C.
Enzyme activity was determined by assaying for PGE2 formation by preincubating the enzyme with 10 mmol/l imidazole phosphate buffer, pH 8.0, 2 mmol/l epinephrine, 2 mmol/l methemoglobin, and the test compound (30 μg/ml) in a total volume of 0.2 ml for one minute at 37° C. After preincubation, 5 mmol/l ^14 C-arachidonic acid were added and the mixture was incubated an additional 0.5 minutes at 37° C. The enzyme reaction was stopped by the addition of 2 μl of indomethacin (2 mg/ml) in alcohol.
The reaction mixture was spotted (50 μl) on a silica gel (LQ6D) plate and subjected to TLC. The solvent system consisted of chloroform-methanol-glacial acetic acid (90:5:5, v/v/v) and the relative mobilities were PGF2α =0.235, and PGE2 =0.47. The silica gel on the plate was scraped in 1 cm sections, suspended in 5 ml of the scintillation fluid [5.88 g of 2,5-diphenyloxazole and 118 mg of 1,4 -bis(5-phenyloxazol-2-yl)benzene] dissolved in 650 ml of toluene and 350 ml of Triton X-100) and the radioactivity was determined in an Isocap/300 liquid scintillation counter (Searle Analytic, Inc., Southfield, Mich.). Another 50 μl of the mixture was added to 10 ml of the Triton X-100 based scintillation fluid, and the radioactivity was determined so that the amount of radioactivity recovery from the TLC plate could be ascertained. PGE2 formation for each test compound was determined as a percent of control experiments wherein no test compound was added. Data is expressed in Table I either as the percent inhibition of formation of PGE2 at a test compound concentration of 30 μ g/ml, or as an IC50 for inhibition of PGE2 formation.

[2] abbreviates: guinea pig PMNL sonicate supernatant, 37° C., 5 μM 14C-arachidonic acid.

pIC50: −log10 of the molar value.

As usually defined, the pIC50 is the negative decadic logarithm of the IC50, by convention in mol/L. Higher therefore signals a small IC50. `CCCc1c(OC)ccc(C(=O)c2ccccc2O)c1O` [Example 3, (2-Hydroxy-4-methoxy-3-propylphenyl)(2-hydroxyphenyl)methanone]: the pIC50 is 5.98 against 5-lipoxygenase (setting [2]) and 5.31 in assay [1].

As a reminder, the inhibition is the share of the control response that was lost under treatment. Lower therefore signals a response near the control. Consider `CCCc1c(OCCCc2nnn[nH]2)ccc(C(=O)c2ccccc2O)c1O` [Example 27, (2-Hydroxyphenyl)(2-hydroxy-3-propyl-4-[3-(1H-tetrazol-5-yl)propoxy]phenyl)methanone], for which the pIC50 against 5-lipoxygenase (setting [2]) was 4.98. In assay [1], this compound registered an inhibition at 30 µg/mL of 15%.

Compound `CCCc1c(OCCCCCc2nnn[nH]2)ccc(C(=O)c2ccccc2O)c1O` [Example 24, (2-Hydroxyphenyl)[2-hydroxy-3-propyl-4-([5-(1H-tetrazol-5-yl)pentyl]oxy)phenyl]methanone] gave a pIC50 against 5-lipoxygenase (setting [2]) of 4.53.

As for `CCCc1c(OC)ccc(C(=O)c2ccccc2O)c1OC` [Example 2, (2,4-Dimethoxy-3-propylphenyl)(2-hydroxyphenyl)methanone], the figures for the pIC50 (on 5-lipoxygenase (setting [2]); in assay [1]) were 5.57 and 5.03, respectively.

At 5-lipoxygenase (setting [2]), `CCCc1c(OCCCCc2nnn(C)n2)ccc(C(=O)c2ccccc2OC)c1O` [Example 32, (2-Hydroxy-4-[4-(2-methyl-2H-tetrazol-5yl)butoxy]-3-propylphenyl)(2-methoxyphenyl)methanone] gave a pIC50 of 6.33.

On to `CCCc1c(OCCCCC#N)ccc(C(=O)c2ccccc2OC)c1O` [Example 18, 5-[3-Hydroxy-4-(2-methoxybenzoyl)-2-propylphenoxy]pentanenitrile], for which the pIC50 at 5-lipoxygenase (setting [2]) is 4.66. The inhibition at 30 µg/mL in assay [1] was 15%.

`C=C(c1ccccc1OC)c1ccc(OCCCCC#N)c(CCC)c1OC` [Example 20, 5-(3-Methoxy-4-[1-(2-methoxyphenyl)ethenyl]2-propylphenoxy)pentanenitrile] had a pIC50 against 5-lipoxygenase (setting [2]) of 4.10.

For the compound `CCCc1c(OCCCCc2nnnn2C)ccc(C(=O)c2ccccc2OC)c1O` [Example 33, (2-Hydroxy-4-[4-(1-methyl-1H-tetrazol-5-yl)butoxy]3-propylphenyl)(2-methoxyphenyl)methanone], at 5-lipoxygenase (setting [2]), the pIC50 was 6.15. The compound further showed an inhibition at 30 µg/mL in assay [1] of 0%.

For the compound `CCCc1c(OCC#N)ccc(C(=O)c2ccccc2O)c1O` [Example 12], the pIC50 is 4.65 on 5-lipoxygenase (setting [2]) and 4.49 in assay [1].

As to `CCCc1c(OC)ccc(C(=O)c2ccccc2OC)c1OC` [Example 1, (2,4-Dimethoxy-3-propylphenyl)(2-methoxyphenyl)methanone], the pIC50 is 6.02 on 5-lipoxygenase (setting [2]) and 4.76 in assay [1].

As for `CCCc1c(OCc2nnn[nH]2)ccc(C(=O)c2ccccc2O)c1O` [Example 21, (2-Hydroxyphenyl)[2-hydroxy-3-propyl-4-(1H-tetrazol-5-ylmethoxy)phenyl]methanone], the inhibition at 30 µg/mL (against 5-lipoxygenase; in assay [1]) was 0% in each case.

For the compound `CCCc1c(OCCCCC#N)ccc(C(=O)c2ccccc2OC)c1OC` [Example 19, 5-[3-Methoxy-4-(2-methoxybenzoyl)-2-propylphenoxy]pentanenitrile], on 5-lipoxygenase (setting [2]), the pIC50 was 4.58. For the same compound, in assay [1], at 30 µg/mL the inhibition was 9%.

Take “(2,3-Dihydro-4-hydroxy-2-methyl-7-benzofuranyl)(2-hydroxyphenyl)methanone [Example 8]”: the “IC50 5-LPO (inhibition of 5-HETE formation)” value at 5-lipoxygenase (setting [2]) amounted to 8 µg/mL.

`CCCc1c(OCc2ccc(-c3nnn[nH]3)cc2)ccc(C(=O)c2ccccc2O)c1O` [Example 22, (2-Hydroxyphenyl)[2-hydroxy-3-propyl-4([4-(1H-tetrazol-5-yl)phenyl]methoxy)phenyl]methanone]: the pIC50 against 5-lipoxygenase (setting [2]) is 5.03; in assay [1] it was 4.49.

As for `CCCc1cc(C(=O)c2ccccc2O)c(O)c(CCC)c1O` [Example 7, (2,4-Dihydroxy-3,5-dipropylphenyl)(2-hydroxyphenyl)methanone], the pIC50 is 4.20 on 5-lipoxygenase (setting [2]) and 4.76 in assay [1].

As for `CCCc1c(OCc2ccc(C#N)cc2)ccc(C(=O)c2ccccc2O)c1O` [Example 17, 4-([3-Hydroxy-4-(2-hydroxybenzoyl)-2-propylphenoxy]methyl)benzonitrile], the values for the inhibition at 30 µg/mL (on 5-lipoxygenase; in assay [1]) were 94% and 48%, respectively.

Take `CCCc1c(OCCCCCC#N)ccc(C(=O)c2ccccc2O)c1O` [Example 13, 6-[3-Hydroxy-4-(2-hydroxybenzoyl)-2-propylphenoxy]hexanenitrile]: at 5-lipoxygenase (setting [2]), the pIC50 was 5.26. 30 µg/mL produced 40% inhibition in assay [1].

The compound `CCCc1c(OCCCCc2nnn[nH]2)ccc(C(=O)c2ccccc2OC)c1OC` [Example 29, (2-Methoxyphenyl)(2-methoxy-3-propyl-4-[4-(1H-tetrazol-5-yl)butoxy]phenyl)methanone] showed a pIC50 on 5-lipoxygenase (setting [2]) of 4.85. In assay [1], the inhibition at 30 µg/mL is less than 5%.
